Species on record: Rattus norvegicus
Experiment: Open TG-GATES - Regimen: Single
Type: toxicity, organism-based, Sprague-Dawley
Parameters: regimen Single, gender Male, age 6 weeks
Details: in vivo, po, 100 mg/kg, route gavage; for APTT / Bas / Eos / Fbg / Hb / Ht / Lym / MCH / MCHC / MCV / Mono / Neu / PT / Plat / RBC / Ret / WBC: tissue Blood; for KIDNEY_L / KIDNEY_R / KIDNEY_TOTAL: tissue Kidney; for LIVER: tissue Liver; for A/G / ALP / ALT / AST / BUN / CRE / Ca / Cl / DBIL / GLC / IP / K / LDH / Na / PL / RALB / TBIL / TC / TG / TP / gamma-GTP: tissue Plasma

O=C1CN(/N=C/c2ccc([N+](=O)[O-])o2)C(=O)N1 [NITROFURANTOIN]
TERMINAL_BW (6 h, dose level Low): 199.6 g | APTT (6 h, dose level High): 18.6 s | Bas (6 h, dose level High): 0% | Eos (6 h, dose level High): 1% | Fbg (6 h, dose level High): 216.6 mg/dL | Hb (6 h, dose level High): 13.3 g/dL | Ht (6 h, dose level High): 38% | Lym (6 h, dose level High): 73% | MCH (6 h, dose level High): 21.6 pg | MCHC (6 h, dose level High): 35% | MCV (6 h, dose level High): 61.7 fL | Mono (6 h, dose level High): 3.2% | Neu (6 h, dose level High): 21.4% | PT (6 h, dose level High): 12.9 s | Plat (6 h, dose level High): 122 x10_4/uL | RBC (6 h, dose level High): 615 x10_4/ul | Ret (6 h, dose level High): 7.7% | WBC (6 h, dose level High): 113.2 x10_2/uL | APTT (6 h, dose level Low): 16.4 s | Eos (6 h, dose level Low): 1.2% | Fbg (6 h, dose level Low): 215.8 mg/dL | Hb (6 h, dose level Low): 13.4 g/dL | Ht (6 h, dose level Low): 40.6% | Lym (6 h, dose level Low): 74.6% | MCH (6 h, dose level Low): 21.3 pg | MCHC (6 h, dose level Low): 32.9% | MCV (6 h, dose level Low): 64.5 fL | Mono (6 h, dose level Low): 6.8% | Neu (6 h, dose level Low): 17.8% | PT (6 h, dose level Low): 11.7 s | Plat (6 h, dose level Low): 121.5 x10_4/uL | RBC (6 h, dose level Low): 629.8 x10_4/ul | Ret (6 h, dose level Low): 7% | WBC (6 h, dose level Low): 89.8 x10_2/uL | KIDNEY_L (6 h, dose level High): 1 g | KIDNEY_R (6 h, dose level High): 1 g | KIDNEY_TOTAL (6 h, dose level High): 2 g | KIDNEY_L (6 h, dose level Low): 0.9 g | KIDNEY_R (6 h, dose level Low): 0.9 g | KIDNEY_TOTAL (6 h, dose level Low): 1.8 g | LIVER (6 h, dose level High): 9.4 g | LIVER (6 h, dose level Low): 8.3 g | A/G (6 h, dose level High): 1.5 | ALP (6 h, dose level High): 745.6 IU/L | ALT (6 h, dose level High): 32.2 IU/L | AST (6 h, dose level High): 64.6 IU/L | BUN (6 h, dose level High): 10.6 mg/dL | CRE (6 h, dose level High): 0.4 mg/dL | Ca (6 h, dose level High): 10.6 mg/dL | Cl (6 h, dose level High): 103.8 meq/L | DBIL (6 h, dose level High): 0.078 mg/dL | GLC (6 h, dose level High): 184.4 mg/dL | IP (6 h, dose level High): 8.9 mg/dL | K (6 h, dose level High): 4.2 meq/L | LDH (6 h, dose level High): 211 IU/L | Na (6 h, dose level High): 140.8 meq/L | PL (6 h, dose level High): 135.4 mg/dL | RALB (6 h, dose level High): 3.3 g/dL | TBIL (6 h, dose level High): 0.1 mg/dL | TC (6 h, dose level High): 78.8 mg/dL | TG (6 h, dose level High): 55 mg/dL | TP (6 h, dose level High): 5.5 g/dL | gamma-GTP (6 h, dose level High): 1.2 IU/L | A/G (6 h, dose level Low): 2.2 | ALP (6 h, dose level Low): 1217 IU/L | AST (6 h, dose level Low): 66 IU/L | BUN (6 h, dose level Low): 13.6 mg/dL | Ca (6 h, dose level Low): 11 mg/dL | Cl (6 h, dose level Low): 104.6 meq/L | DBIL (6 h, dose level Low): 0.008 mg/dL | GLC (6 h, dose level Low): 190.8 mg/dL | IP (6 h, dose level Low): 8.7 mg/dL | K (6 h, dose level Low): 4.6 meq/L | LDH (6 h, dose level Low): 92.2 IU/L | Na (6 h, dose level Low): 139.4 meq/L | PL (6 h, dose level Low): 150.8 mg/dL | RALB (6 h, dose level Low): 3.9 g/dL | TBIL (6 h, dose level Low): 0.036 mg/dL | TC (6 h, dose level Low): 100 mg/dL | TG (6 h, dose level Low): 44 mg/dL | TP (6 h, dose level Low): 5.7 g/dL | gamma-GTP (6 h, dose level Low): 0.4 IU/L | TERMINAL_BW (9 h, dose level High): 213.9 g | TERMINAL_BW (9 h, dose level Low): 211 g | APTT (9 h, dose level High): 19.3 s | Bas (9 h, dose level High): 0% | Eos (9 h, dose level High): 1% | Fbg (9 h, dose level High): 245.8 mg/dL | Hb (9 h, dose level High): 13.1 g/dL | Ht (9 h, dose level High): 37.3% | Lym (9 h, dose level High): 75.4% | MCH (9 h, dose level High): 21.5 pg | MCHC (9 h, dose level High): 35.2% | MCV (9 h, dose level High): 61.1 fL | Mono (9 h, dose level High): 2.6% | Neu (9 h, dose level High): 19.8% | PT (9 h, dose level High): 12.9 s | Plat (9 h, dose level High): 126.6 x10_4/uL | RBC (9 h, dose level High): 609.4 x10_4/ul | Ret (9 h, dose level High): 8% | WBC (9 h, dose level High): 77.1 x10_2/uL | APTT (9 h, dose level Low): 19 s | Eos (9 h, dose level Low): 1.2% | Fbg (9 h, dose level Low): 229.2 mg/dL | Hb (9 h, dose level Low): 12.7 g/dL | Ht (9 h, dose level Low): 39% | Lym (9 h, dose level Low): 65.6% | MCH (9 h, dose level Low): 20.8 pg | MCHC (9 h, dose level Low): 32.7% | MCV (9 h, dose level Low): 63.6 fL | Mono (9 h, dose level Low): 9.2% | Neu (9 h, dose level Low): 24.4% | PT (9 h, dose level Low): 12.3 s | Plat (9 h, dose level Low): 124.9 x10_4/uL | RBC (9 h, dose level Low): 612.8 x10_4/ul | Ret (9 h, dose level Low): 6.7% | WBC (9 h, dose level Low): 65.8 x10_2/uL | KIDNEY_L (9 h, dose level High): 1 g | KIDNEY_R (9 h, dose level High): 1 g | KIDNEY_TOTAL (9 h, dose level High): 2 g | KIDNEY_R (9 h, dose level Low): 0.9 g | KIDNEY_TOTAL (9 h, dose level Low): 1.9 g | LIVER (9 h, dose level High): 9.3 g | LIVER (9 h, dose level Low): 9.4 g | A/G (9 h, dose level High): 1.5 | ALP (9 h, dose level High): 749 IU/L | ALT (9 h, dose level High): 33.2 IU/L | AST (9 h, dose level High): 62 IU/L | BUN (9 h, dose level High): 11 mg/dL | CRE (9 h, dose level High): 0.3 mg/dL | Ca (9 h, dose level High): 10.7 mg/dL | Cl (9 h, dose level High): 103.4 meq/L | DBIL (9 h, dose level High): 0.07 mg/dL | GLC (9 h, dose level High): 191.8 mg/dL | IP (9 h, dose level High): 9.6 mg/dL | K (9 h, dose level High): 4 meq/L | LDH (9 h, dose level High): 219.8 IU/L | Na (9 h, dose level High): 141.2 meq/L | PL (9 h, dose level High): 146.6 mg/dL | RALB (9 h, dose level High): 3.2 g/dL | TBIL (9 h, dose level High): 0.1 mg/dL | TC (9 h, dose level High): 82.2 mg/dL | TG (9 h, dose level High): 42.2 mg/dL | TP (9 h, dose level High): 5.5 g/dL | gamma-GTP (9 h, dose level High): 1.2 IU/L | A/G (9 h, dose level Low): 2.1 | ALP (9 h, dose level Low): 1192 IU/L | ALT (9 h, dose level Low): 30.2 IU/L
